“Also recorded” adds a separate entry of the source.
Assays:
[1] = test system: mouse adipocytes (cell line 3T3-L1); test: 2-deoxyglucose (2-DG) uptake, resorufin assay; assay type: cell-based
Description: Mouse adipocytes (cell line 3T3-L1) as well as mouse myotubes (cell line C2C12) were cultivated under standard conditions and treated either with regular cell culture medium or insulin for 4 hours. Afterwards, cells were exposed to a combination of 2-deoxyglucose (2-DG) and the respective sample, either N-MP, coffee beverage (content of NMP in the coffee beverage: 26.7 mg/L) or a combination of both, for 2 hours. Then, cells were harvested and the 2-DG uptake was analyzed photometrically using the resorufin assay (Yamamoto, N.; Sato, T.; Kawasaki, K.; Murosaki, S.; Yamamoto, Y. A nonradioisotope, enzymatic assay for 2-deoxyglucose uptake in L6 skeletal muscle cells cultured in a 96-well microplate. Analytical Biochemistry 2006, 351, 139-145).

[2] = test system: mouse adipocytes (cell line 3T3-L1); test: 2-deoxyglucose (2-DG) uptake, resorufin assay; assay type: cell-based; details: for 2-DG uptake: first ten minutes after incubation, nearly independent of concentration
[3] = sample alone, no insulin cotreatment, compared to control cells

Row | Molecule | 2-deoxyglucose uptake in adipocytes [1, 3] | 2-deoxyglucose uptake in adipocytes ([1]; in combination with insulin) | other results
1 | Cc1ccc[n+](C)c1 [N-3-Methylpicolinium iodide] | substantial improvement | – | –
2 | Cc1cc[n+](C)cc1 [N-4-Methylpicolinium] | substantial increase | substantial increase | 2-DG uptake ([1]; alone or in combination with insulin, independently from the concentration used (FIGS. 10 and 11)): higher than 100%; 2-DG uptake ([1]; in some cases (FIG. 11, concurrent use of insulin)): > 200%
3 | CCCCCCCCCCCCCCCC[n+]1ccccc1 [N-cetylpyridinium iodide] | excellent effects | excellent effects | 2-DG uptake ([2]; alone (FIG. 16 left panel)): excellent results; 2-DG uptake ([2]; co-treatment with insulin (FIG. 16 right panel)): excellent results
4 | CC[n+]1ccccc1 [N-ethylpyridinium iodide] | good results | – | –
5 | C[n+]1ccccc1.[I-] [N-methylpyridinium iodide] | – | improved | –
6 | N-methylpyridinium [N-MP] | increased; also recorded: best results and effects | significantly enhance the effect of insulin | 2-DG uptake by mouse adipocytes ([2]; FIG. 2, in combination with insulin, treatment times 1 min and 10 min, compared with insulin alone): statistically higher extent than insulin alone; effectiveness of insulin on 2-deoxyglucose uptake ([1]; FIG. 5, in combination with coffee beverage and insulin): greatly enhance the effectiveness of insulin; 2-deoxyglucose uptake in adipocytes ([1]; sample alone, no insulin cotreatment, compared to control cells, listed as N-Methylpyridinium): enhance the uptake of 2-deoxyglucose in mouse adipocytes similarly insulin
